According to the supplement of paper PMC5412046:
Structures can show the parent of a compound that is named as a salt.

system: SB.msgc-1; assay: AC50 for growth inhibition (viability) (log10 M); higher = less potent; conditions: SB.msgc-1 (sporadic gastric cancer)
How it was run: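 Gastric cancer cells derived from patients with hereditary or sporadic disease were seeded at 500 cells in 5 μL medium per 1536 well. A pintool delivered 23 nL of compound in DMSO, as 11 threefold dilutions from a final 46 μM. After 48 h, CellTiter-Glo was added for 30 min at room temperature and luminescence was read on a ViewLux. The log half-maximal activity concentration was taken from a four-parameter fit of viability normalised to DMSO, using only high-quality curve classes.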

Structure (SMILES) | AC50 for growth inhibition (log10 M)
Cc1c(C)n(Cc2ccc(-c3ccccc3C(=O)O)cc2)c2ccc(C(=O)N[C@@H](C)c3ccc([N+](=O)[O-])cc3)cc12 [SR1664] | -4.68
C[C@@H]1[C@H]\2[C@H](O)[C@H]3[C@H](N(C)C)\C(=C(C(N)=O)/C(=O)[C@@]3(O)\C(=C2C(=O)C4=C(O)C=CC=C14)O)O [Doxycycline] | -4.68
COc1cc(N2CCN(C)CC2)ccc1Nc1nc(N)c(C(=O)c2c(Cl)cccc2Cl)s1 | -5.18
CN(C)[C@H]\1[C@@H]2[C@@H](O)[C@@H]\3C(=C)C4=C(C(=CC=C4)O)C(=O)C3=C(\O)[C@@]2(O)C(=O)\C(=C1O)C(N)=O [Methacycline hydrochloride] | -4.73
C/C(=N\NC(=S)N1CCC1)c1ccccn1 | -5.73
CC(N[C@H]1CCCC[C@@H]1NC(=O)c1ccc(Cl)cc1)c1cccc2ccccc12 (some centres not stated) [Calhex 231] | -5.93
OC[C@H]1O[C@H](C[C@@H]1O)[N]2C=NC3=C2\N=C/NC[C@H]3O [Pentostatin] | -4.68
COc1ccc2c(c1)CC[C@@H](CN(C)CC(=O)O)[C@H]2c1ccccc1 | -5.63
CC(=O)O[C@@]1(CC[C@H]2[C@@H]3\C=C(C)/C4=C/C(=O)CC[C@]4(C)[C@H]3CC[C@]12C)C(C)=O [Megestrol acetate] | -5.23
NC(=O)N/N=C/c1ccc([N+](=O)[O-])o1 [Nitrofurazone] | -4.68
CC[C@H](/C=C/[C@@H](C)[C@H]1CC[C@H]2[C@@H]3CC=C4C[C@@H](O)CC[C@]4(C)[C@H]3CC[C@]12C)C(C)C [Stigmasterol] | -5.19
COc1cc2ncnc(Nc3cc(Br)c(O)c(Br)c3)c2cc1OC [WHI-P97] | -7.78
CCOC(=O)c1ncn2c1CN(C)C(=O)c1cc(F)ccc1-2 [Flumazenil] | -4.63
COC(=O)c1ccc2c(c1)NC(=O)/C2=C(\Nc1ccc(N(C)C(=O)CN2CCN(C)CC2)cc1)c1ccccc1 [Vargatef] | -5.28
O=C(C1CC1)N1CC[C@@H](Cn2c(-c3ccc(-c4ccc5occc5c4)cc3)nc3cnccc32)C1 | -4.73
Clc1ccc(C(Cn2ccnc2)OCc2ccc(Sc3ccccc3)cc2)c(Cl)c1 (configuration not stated) [Fenticonazole nitrate] | -4.73
O=C(/C=C/c1cccnc1)NCCCCC1CCN(C(=O)c2ccccc2)CC1 [Daporinad] | -6.08
N#Cc1ccc(Oc2ccc3c(c2)COB3O)cc1 [AN2728] | -4.73
O=C1NC(=O)/C(=C\c2ccc(-c3ccc(F)cc3)o2)S1 | -4.78
CCC(C)N1\N=C/N(C1=O)C2=CC=C(C=C2)N3CCN(CC3)C4=CC=C(OC[C@H]5CO[C@@](C[N]6C=NC=N6)(O5)C7=CC=C(Cl)C=C7Cl)C=C4 (some centres not stated) [Itraconazole] | -5.58
O=NN(CCCl)C(=O)NC1CCCCC1 [Lomustine] | -4.83
c1ccc(CNc2nc(N3CCOc4ccccc43)nc3c2CCCC3)cc1 | -4.68
Cc1cc(NC(=O)Nc2ccc(N(C)C)cc2)c2cc(F)cc(F)c2n1 | -5.08

Structure (SMILES) | AC50 for growth inhibition (log10 M)
NC(=O)Nc1cc(-c2cccc(F)c2)sc1C(=O)N[C@H]1CCCNC1 [AZD-7762] | -6.73
COC(=O)Nc1ccc(-c2nc(N3CCOCC3)c3cnn(C4CCN(C(=O)OC)CC4)c3n2)cc1 [WYE-354] | -6.03
CC1COC2(CCN(CC2)C/3=N/C(=O)C4=CC(=CC(=C4S3)[N+]([O-])=O)C(F)(F)F)O1 (configuration not stated) | -4.78
CCCOc1ccc2[nH]c(NC(=O)OC)nc2c1 [Oxibendazole] | -7.83
C[S+](=O)([O-])c1cc(F)cc2c3c(n(Cc4ccc(Cl)cc4)c12)[C@@H](CC(=O)O)CC3 [Laropiprant] | -5.43
COc1ccc(N(C(=O)Oc2c(C)cccc2C)c2ccnc(Nc3ccc(N4CCN(C)CC4)cc3)n2)c(OC)c1 | -5.43
CCCCCCCCCCCCCC(=O)N[C@H](CO)[C@H](O)c1ccc([N+](=O)[O-])cc1 [D-NMAPPD] | -4.93
Cc1cc(SCc2sc(-c3ccc(C(F)(F)F)c(F)c3)nc2C)ccc1OCC(=O)O [GW-0742] | -4.78
CNc1nc(-c2ccc3c(N)n[nH]c3c2)cc(N2C[C@@H](C(=O)NC3CCCCC3)CC[C@H]2C)n1 | -4.68
COc1cc(Nc2ncc(F)c(Nc3ccc4c(n3)NC(=O)C(C)(C)O4)n2)cc(OC)c1OC [R406] | -4.63
Cc1ccc(C(=O)c2cc(O)c(O)c([N+](=O)[O-])c2)cc1 [Tolcapone] | -4.68
O=C(Nc1ccc(OC(F)(F)F)cc1)c1sccc1NCc1ccnc2ccccc12 [OSI-930] | -4.73
O=C1NC(=O)/C(=C/c2cccc(C(F)(F)F)c2)S1 [SMI-4a] | -4.83
C[C@]12CC[C@H]3[C@@H](CC(=C)\C4=C\C(=O)\C=C/[C@]34C)[C@@H]1CCC2=O [Exemestane] | -4.83
CC(C)[C@H]1C(=O)N[C@H](CO)Cc2c[nH]c3cccc(c23)N1C [(-)-Indolactam V] | -6.43
C\C1=C(\C=C(\C#N)C(=O)N1)C2=CC=NC=C2 [Milrinone] | -4.73
COc1cc(/C=C/C(=O)CC(=O)/C=C/c2ccc(O)c(OC)c2)ccc1O [Curcumin] | -4.37
C/C(=C\C(=O)Nc1ccccc1C(=O)O)c1ccc2ccccc2c1 [BIBR 1532] | -4.78
c1ccc(-c2nn3c(c2-c2ccnc4cc(OCCN5CCOCC5)ccc24)CCC3)nc1 | -4.68
CC(=O)O[C@H]1C[C@@H]2CC[C@@H]3[C@H](CC[C@@]4(C)[C@H]3C[C@H]([N+]3(C)CCCCC3)[C@@H]4OC(C)=O)[C@@]2(C)C[C@@H]1[N+]1(C)CCCCC1 [Pancuronium bromide] | -5.53
CC/1=C(/C(CC(=O)N1)C2=CC=C(C=C2)C(F)(F)F)C(=O)NC3=C(F)C=C4[NH]N=CC4=C3 (configuration not stated) | -5.03
Cn1c(Nc2ccc(C(F)(F)F)cc2)nc2cc(Oc3ccnc(-c4nc(C(F)(F)F)c[nH]4)c3)ccc21 [CHIR-265] | -6.68
COc1cc2c(cc1O)CCC1C2CC[C@@]2(C)C1CC[C@@H]2O (some centres not stated) [2-Methoxyestradiol] | -5.33

Structure (SMILES) | AC50 for growth inhibition (log10 M)
CN(c1nccc(=O)[nH]1)C1CCN(c2nc3ccccc3n2Cc2ccc(F)cc2)CC1 [Mizolastine] | -4.53
Cc1cccc(C)c1OCC(=O)N[C@@H](Cc1ccccc1)[C@@H](O)C[C@H](Cc1ccccc1)NC(=O)[C@H](C(C)C)N1CCCNC1=O [Lopinavir] | -4.73
COc1ccc(CC2NCCc3cc(OC)c(OC)cc32)cc1OC (configuration not stated) [Tetrahydropapaverine] | -4.78
CN(C)Cc1ccc(-c2nc3cccc4c3n2CCNC4=O)cc1 | -4.78
CC[C@@]1(O)C(=O)OC\C2=C1\C=C3/N(CC4=CC5=C(C=CC(=C5CN(C)C)O)N=C34)C2=O [Topotecan hydrochloride] | -6.73
C=CC[C@@H]1/C=C(\C)C[C@H](C)C[C@H](OC)[C@H]2O[C@@](O)(C(=O)C(=O)N3CCCC[C@H]3C(=O)O[C@H](/C(C)=C/[C@@H]3CC[C@@H](O)[C@H](OC)C3)[C@H](C)[C@@H](O)CC1=O)[C@H](C)C[C@@H]2OC [FK-506] | -5.18
Cl.O[C@@H](CNC[C@H](O)[C@H]1CCc2cc(F)ccc2O1)[C@@H]1CCc2cc(F)ccc2O1 [Nebivolol] | -4.93
Cc1cc2c(C(C)C)c(O)c(O)c(C=O)c2c(O)c1-c1c(C)cc2c(C(C)C)c(O)c(O)c(C=O)c2c1O [(-)-Gossypol] | -4.83
CN(CC#C)C/C1=C/C2=CC=CC=C2OC3=CC=CC=C13 [Omigapil] | -4.63
CCOC(=O)Nc1ccc(NCc2ccc(F)cc2)cc1N [Retigabine] | -4.83
C/C=C(/C)C(=O)O[C@H]1C(C)=C[C@]23C(=O)[C@@H](C=C(CO)[C@@H](O)[C@]12O)[C@H]1[C@@H](C[C@H]3C)C1(C)C [Ingenol mebutate] | -7.18
C[N]1C=C(C=N1)C2=CC=C3N=CC\4=C(N(C(=O)\C=C4)C5=CC6=C(CCN6C(=O)C=C)C=C5)C3=C2 | -4.98
CC(=O)N(C)c1cccc(-c2ccnc3c(C(=O)c4cccs4)cnn23)c1 [Indiplon] | -4.68
CN1CCN(c2ccc([N+](=O)[O-])c3no[n+]([O-])c23)CC1 | -4.63
COc1cc([C@H]2Oc3cc([C@H]4Oc5cc(O)cc(O)c5C(=O)[C@@H]4O)ccc3O[C@@H]2CO)ccc1O [Silybin] | -4.78
NC(=O)c1noc([C@H](CCCC2CCCCC2)CC(=O)NO)n1 | -4.93
CCCCCCCCCCCCCCCC(=O)O[C@@H]1[C@@H](O)[C@@H](O)[C@@H]([C@H](NC(=O)[C@@H]2C[C@@H](CCC)CN2C)[C@H](C)Cl)O[C@@H]1SC.Cl [Clindamycin palmitate] | -4.78
Nc1nc2ccc(OC(F)(F)F)cc2s1 [Riluzole] | -4.73
CCC[S+]([O-])c1ccc2[nH]c(NC(=O)OC)nc2c1 (configuration not stated) [Albendazole Oxide] | -4.68
CN1CCN(c2cccc(Nc3nc4c(-c5ccc([S+](C)(=O)[O-])cc5)cccn4n3)c2)CC1 | -4.78
O=C(CCCN1CCN(c2ccc(F)cc2)CC1)NC1c2ccccc2CSc2ccccc21 (configuration not stated) [Monatepil] | -5.23
